Measurements reported in PubChem BioAssay AID2060616 (Molecular Pharmacology Branch, DTP, NCI, 2025).

System: 377384-186-R-J1-PDC complex spheroid viability
Test: Anticancer human tumor 377384-186-R-J1-PDC patient-derived pancreatic carcinoma cell line growth inhibition [CLK]
Conditions: for IC50: curve of first compound; for viability, T/C: stronger effect = lower value
In short: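 Patient-derived tumor cells grown as complex spheroids with HUVEC endothelial cells and mesenchymal stem cells, treated with drug combinations. Concentrations descend in half-log steps from near clinical Cmax, or from 10 microM if Cmax unknown.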

[1] = second compound 0.0316 µM, first compound 0.0316 µM
[2] = second compound 0.0316 µM, first compound 0.1 µM
[3] = second compound 0.0316 µM, first compound 0.316 µM
[4] = second compound 0.0316 µM, first compound 1 µM
[5] = second compound 0.1 µM, first compound 0.0316 µM
[6] = second compound 0.1 µM, first compound 0.1 µM
[7] = second compound 0.1 µM, first compound 0.316 µM
[8] = second compound 0.1 µM, first compound 1 µM
[9] = second compound 0.316 µM, first compound 0.0316 µM
[10] = second compound 0.316 µM, first compound 0.1 µM
[11] = second compound 0.316 µM, first compound 0.316 µM
[12] = second compound 0.316 µM, first compound 1 µM
[13] = second compound 1 µM, first compound 0.0316 µM
[14] = second compound 1 µM, first compound 0.1 µM
[15] = second compound 1 µM, first compound 0.316 µM
[16] = second compound 1 µM, first compound 1 µM
[17] = second compound 3.16 µM, first compound 0.0316 µM
[18] = second compound 3.16 µM, first compound 0.1 µM
[19] = second compound 3.16 µM, first compound 0.316 µM
[20] = second compound 3.16 µM, first compound 1 µM
[21] = second compound 10 µM, first compound 0.0316 µM
[22] = second compound 10 µM, first compound 0.1 µM
[23] = second compound 10 µM, first compound 0.316 µM
[24] = second compound 10 µM, first compound 1 µM
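Note: spheroids exposed to agents for 7 days before reading.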
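Throughout, for viability, T/C: luminescence signal used as a stand-in for viable cells.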

With `C=CC(=O)Nc1cc(Nc2nccc(-c3cn(C)c4ccccc34)n2)c(OC)cc1N(C)CCN(C)C` + CN1CCN(c2cc(C(=O)Nc3cc4cc(-c5cnn(C)c5)ccc4cn3)ccn2)CC1 the IC50 (second compound 0.0316 µM) was greater than 0.3 µM, the IC50 (second compound 0.1 µM) was greater than 0.3 µM and the IC50 (second compound 0.316 µM) was less than 0.000949 µM. For the same molecule, the IC50 (second compound 1 µM) was less than 0.000949 µM, the IC50 (second compound 3.16 µM) was less than 0.000949 µM and the IC50 (second compound 10 µM) was less than 0.000949 µM. For the same molecule, the viability, T/C (second compound 0.0316 µM, first compound 0.000949 µM) was 91.6%, the viability, T/C (second compound 0.0316 µM, first compound 0.003 µM) was 100% and the viability, T/C (second compound 0.0316 µM, first compound 0.00949 µM) was 90.7%. The viability, T/C (second compound 0.0316 µM, first compound 0.03 µM) was 93.6%, the viability, T/C (second compound 0.0316 µM, first compound 0.0949 µM) was 79.5% and the viability, T/C (second compound 0.0316 µM, first compound 0.3 µM) was 76.3%. It also gave a viability, T/C (second compound 0.1 µM, first compound 0.000949 µM) of 109%, a viability, T/C (second compound 0.1 µM, first compound 0.003 µM) of 99.4% and a viability, T/C (second compound 0.1 µM, first compound 0.00949 µM) of 83.3%. The viability, T/C (second compound 0.1 µM, first compound 0.03 µM) was 91.2%, the viability, T/C (second compound 0.1 µM, first compound 0.0949 µM) was 79.2% and the viability, T/C (second compound 0.1 µM, first compound 0.3 µM) was 63%. It also gave a viability, T/C (second compound 0.316 µM, first compound 0.000949 µM) of 26.1%, a viability, T/C (second compound 0.316 µM, first compound 0.003 µM) of 26.6% and a viability, T/C (second compound 0.316 µM, first compound 0.00949 µM) of 25.1%. It also gave a viability, T/C (second compound 0.316 µM, first compound 0.03 µM) of 26.5%, a viability, T/C (second compound 0.316 µM, first compound 0.0949 µM) of 23.7% and a viability, T/C (second compound 0.316 µM, first compound 0.3 µM) of 22.2%. The viability, T/C (second compound 1 µM, first compound 0.000949 µM) was 1.11%, the viability, T/C (second compound 1 µM, first compound 0.003 µM) was 1.28% and the viability, T/C (second compound 1 µM, first compound 0.00949 µM) was 2.15%. For the same molecule, the viability, T/C (second compound 1 µM, first compound 0.03 µM) was 1.55%, the viability, T/C (second compound 1 µM, first compound 0.0949 µM) was 1.26% and the viability, T/C (second compound 1 µM, first compound 0.3 µM) was 1.63%. For the same molecule, the viability, T/C (second compound 3.16 µM, first compound 0.000949 µM) was 0.48%, the viability, T/C (second compound 3.16 µM, first compound 0.003 µM) was 0.71% and the viability, T/C (second compound 3.16 µM, first compound 0.00949 µM) was 1.03%. The viability, T/C (second compound 3.16 µM, first compound 0.03 µM) was 0.37%, the viability, T/C (second compound 3.16 µM, first compound 0.0949 µM) was 0.75% and the viability, T/C (second compound 3.16 µM, first compound 0.3 µM) was 2.51%. For the same molecule, the viability, T/C (second compound 10 µM, first compound 0.000949 µM) was 0.83%, the viability, T/C (second compound 10 µM, first compound 0.003 µM) was 1.36% and the viability, T/C (second compound 10 µM, first compound 0.00949 µM) was 1.97%. The viability, T/C (second compound 10 µM, first compound 0.03 µM) was 0.66%, the viability, T/C (second compound 10 µM, first compound 0.0949 µM) was 2.03% and the viability, T/C (second compound 10 µM, first compound 0.3 µM) was 0.56%.

`CCN1CCN(Cc2ccc(Nc3ncc(F)c(-c4cc(F)c5nc(C)n(C(C)C)c5c4)n3)nc2)CC1` + CN1CCN(c2cc(C(=O)Nc3cc4cc(-c5cnn(C)c5)ccc4cn3)ccn2)CC1 was tested, and the IC50 (second compound 0.0316 µM) was 0.364 µM, the IC50 (second compound 0.1 µM) was 0.514 µM and the IC50 (second compound 0.316 µM) was less than 0.00316 µM. For the same molecule, the IC50 (second compound 1 µM) was less than 0.00316 µM, the IC50 (second compound 3.16 µM) was less than 0.00316 µM and the IC50 (second compound 10 µM) was less than 0.00316 µM. The viability, T/C (second compound 0.0316 µM, first compound 0.00316 µM) was 107%, the viability, T/C (second compound 0.0316 µM, first compound 0.01 µM) was 78.2% and the viability, T/C [1] was 84%. The viability, T/C [2] was 66.3%, the viability, T/C [3] was 48.8% and the viability, T/C [4] was 39.5%. It also gave a viability, T/C (second compound 0.1 µM, first compound 0.00316 µM) of 98.1%, a viability, T/C (second compound 0.1 µM, first compound 0.01 µM) of 101% and a viability, T/C [5] of 76.7%. For the same molecule, the viability, T/C [6] was 79.8%, the viability, T/C [7] was 54.6% and the viability, T/C [8] was 40.5%. The viability, T/C (second compound 0.316 µM, first compound 0.00316 µM) was 24.1%, the viability, T/C (second compound 0.316 µM, first compound 0.01 µM) was 28.6% and the viability, T/C [9] was 26%. It also gave a viability, T/C [10] of 22.9%, a viability, T/C [11] of 24.4% and a viability, T/C [12] of 24.4%. The viability, T/C (second compound 1 µM, first compound 0.00316 µM) was 1.06%, the viability, T/C (second compound 1 µM, first compound 0.01 µM) was 1.3% and the viability, T/C [13] was 1.79%. For the same molecule, the viability, T/C [14] was 1.66%, the viability, T/C [15] was 1.27% and the viability, T/C [16] was 1.25%. The viability, T/C (second compound 3.16 µM, first compound 0.00316 µM) was 0.33%, the viability, T/C (second compound 3.16 µM, first compound 0.01 µM) was 0.44% and the viability, T/C [17] was 1.09%. For the same molecule, the viability, T/C [18] was 0.39%, the viability, T/C [19] was 2.28% and the viability, T/C [20] was 2.3%. The viability, T/C (second compound 10 µM, first compound 0.00316 µM) was 1.2%, the viability, T/C (second compound 10 µM, first compound 0.01 µM) was 0.43% and the viability, T/C [21] was 0.55%. It also gave a viability, T/C [22] of 0.44%, a viability, T/C [23] of 1.76% and a viability, T/C [24] of 0.24%.

For `Nc1ccccc1NC(=O)c1ccc(CNC(=O)OCc2cccnc2)cc1` + CN1CCN(c2cc(C(=O)Nc3cc4cc(-c5cnn(C)c5)ccc4cn3)ccn2)CC1, the IC50 (second compound 0.0316 µM) was 0.78 µM, the IC50 (second compound 0.1 µM) was 0.822 µM and the IC50 (second compound 0.316 µM) was less than 0.0316 µM. The IC50 (second compound 1 µM) was less than 0.0316 µM, the IC50 (second compound 3.16 µM) was less than 0.0316 µM and the IC50 (second compound 10 µM) was less than 0.0316 µM. It also gave a viability, T/C [1] of 103%, a viability, T/C [2] of 90% and a viability, T/C [3] of 76.3%. It also gave a viability, T/C [4] of 42.4%, a viability, T/C (second compound 0.0316 µM, first compound 3.16 µM) of 16.2% and a viability, T/C (second compound 0.0316 µM, first compound 10 µM) of 1.31%. It also gave a viability, T/C [5] of 109%, a viability, T/C [6] of 103% and a viability, T/C [7] of 90.8%. It also gave a viability, T/C [8] of 38.9%, a viability, T/C (second compound 0.1 µM, first compound 3.16 µM) of 17.7% and a viability, T/C (second compound 0.1 µM, first compound 10 µM) of 0.84%. For the same molecule, the viability, T/C [9] was 30.4%, the viability, T/C [10] was 28.1% and the viability, T/C [11] was 29.1%. The viability, T/C [12] was 19%, the viability, T/C (second compound 0.316 µM, first compound 3.16 µM) was 3.98% and the viability, T/C (second compound 0.316 µM, first compound 10 µM) was 0.15%. The viability, T/C [13] was 1.55%, the viability, T/C [14] was 1.77% and the viability, T/C [15] was 1.31%. The viability, T/C [16] was 0.3%, the viability, T/C (second compound 1 µM, first compound 3.16 µM) was 0.25% and the viability, T/C (second compound 1 µM, first compound 10 µM) was 0.12%. The viability, T/C [17] was 0.38%, the viability, T/C [18] was 0.95% and the viability, T/C [19] was 0.9%. The viability, T/C [20] was 0.39%, the viability, T/C (second compound 3.16 µM, first compound 3.16 µM) was 0.52% and the viability, T/C (second compound 3.16 µM, first compound 10 µM) was 0.62%. The viability, T/C [21] was 0.58%, the viability, T/C [22] was 0.42% and the viability, T/C [23] was 0.45%. For the same molecule, the viability, T/C [24] was 0.3%, the viability, T/C (second compound 10 µM, first compound 3.16 µM) was 0.62% and the viability, T/C (second compound 10 µM, first compound 10 µM) was 0.76%.
